The values below are quoted from earlier work in US9198881B2, “Equine nutritional supplement” (priority 2011, dated 2015).

Read-outs that look alike come from different tables or passages of the source.

In the data set the test system is nitric oxide. The settings on record: humans, 8 weeks of supervised aerobic training, FIGS. 4 and 5.

With “Glycine Propionyl L-Carnitine Hydrochloride”, the nitric oxide levels result (1.5 grams per day) is listed as “statistically significant enhancement” and the nitric oxide levels entry (4.5 grams per day) is recorded as “statistically significant enhancement”.
